Measured values reported in the NIST ThermoML archive (doi:10.1016/j.jct.2006.10.011).
Values joined by “and” are separate entries in the source; they are usually repeats but may differ in a detail not shown here. Equal values may be shown once.

Experiment: molar heat capacity at constant pressure
Conditions: 101.33 kPa, Crystal

O [water]
Conditions | molar heat capacity at constant pressure
0.4719 K, Low-temperature adiabatic | 4.834e-06 J/K/mol
0.4841 K, Low-temperature adiabatic | 2.38e-05 J/K/mol
0.5 K, adiabatic | 2.28e-05 J/K/mol
0.5191 K, Low-temperature adiabatic | 3.571e-05 J/K/mol
0.5328 K, Low-temperature adiabatic | 2.99e-05 J/K/mol
0.5456 K, Low-temperature adiabatic | 3.104e-05 J/K/mol
0.5713 K, Low-temperature adiabatic | 3.382e-05 J/K/mol
0.5859 K, Low-temperature adiabatic | 3.177e-05 J/K/mol
0.5999 K, Low-temperature adiabatic | 3.883e-05 J/K/mol
0.6287 K, Low-temperature adiabatic | 4.342e-05 J/K/mol
0.6451 K, Low-temperature adiabatic | 3.414e-05 J/K/mol
0.6608 K, Low-temperature adiabatic | 4.582e-05 J/K/mol
0.6935 K, Low-temperature adiabatic | 5.952e-05 J/K/mol
0.7107 K, Low-temperature adiabatic | 6.565e-05 J/K/mol
0.7283 K, Low-temperature adiabatic | 7.207e-05 J/K/mol
0.764 K, Low-temperature adiabatic | 7.817e-05 J/K/mol
0.783 K, Low-temperature adiabatic | 8.554e-05 J/K/mol
0.8021 K, Low-temperature adiabatic | 9.413e-05 J/K/mol
0.8407 K, Low-temperature adiabatic | 0.0001158 J/K/mol
0.8618 K, Low-temperature adiabatic | 0.0001219 J/K/mol
0.8828 K, Low-temperature adiabatic | 0.0001311 J/K/mol
0.9245 K, Low-temperature adiabatic | 0.0001506 J/K/mol
0.9708 K, Low-temperature adiabatic | 0.000169 J/K/mol
1 K, adiabatic | 0.0001825 J/K/mol
1.015 K, Low-temperature adiabatic | 0.0001986 J/K/mol
1.04 K, Low-temperature adiabatic | 0.0002059 J/K/mol
1.066 K, Low-temperature adiabatic | 0.0002218 J/K/mol
1.116 K, Low-temperature adiabatic | 0.0002582 J/K/mol
1.146 K, Low-temperature adiabatic | 0.0002671 J/K/mol
1.173 K, Low-temperature adiabatic | 0.0002946 J/K/mol
1.228 K, Low-temperature adiabatic | 0.0003386 J/K/mol
1.261 K, Low-temperature adiabatic | 0.0003738 J/K/mol
1.292 K, Low-temperature adiabatic | 0.0004076 J/K/mol
1.352 K, Low-temperature adiabatic | 0.0004587 J/K/mol
1.388 K, Low-temperature adiabatic | 0.0004915 J/K/mol
1.485 K, Low-temperature adiabatic | 0.0006013 J/K/mol
1.5 K, adiabatic | 0.0006167 J/K/mol
1.522 K, Low-temperature adiabatic | 0.0006394 J/K/mol
1.561 K, Low-temperature adiabatic | 0.0006901 J/K/mol
1.634 K, Low-temperature adiabatic | 0.0007957 J/K/mol
1.675 K, Low-temperature adiabatic | 0.0008489 J/K/mol
1.716 K, Low-temperature adiabatic | 0.0009132 J/K/mol
1.731 K, Low-temperature adiabatic | 0.0009652 J/K/mol
1.798 K, Low-temperature adiabatic | 0.001053 J/K/mol
1.816 K, Low-temperature adiabatic | 0.001109 J/K/mol
1.843 K, Low-temperature adiabatic | 0.001123 J/K/mol
1.887 K, Low-temperature adiabatic | 0.001207 J/K/mol
1.904 K, Low-temperature adiabatic | 0.00125 J/K/mol
1.977 K, Low-temperature adiabatic | 0.00139 J/K/mol
1.998 K, Low-temperature adiabatic | 0.001434 J/K/mol
2 K, adiabatic | 0.001465 J/K/mol
2.027 K, Low-temperature adiabatic | 0.001484 J/K/mol
2.076 K, Low-temperature adiabatic | 0.001598 J/K/mol
2.095 K, Low-temperature adiabatic | 0.001659 J/K/mol
2.175 K, Low-temperature adiabatic | 0.00184 J/K/mol
2.2 K, Low-temperature adiabatic | 0.001902 J/K/mol
2.304 K, Low-temperature adiabatic | 0.002208 J/K/mol
2.421 K, Low-temperature adiabatic | 0.002544 J/K/mol
2.5 K, adiabatic | 0.002874 J/K/mol
2.536 K, Low-temperature adiabatic | 0.002963 J/K/mol
2.664 K, Low-temperature adiabatic | 0.003432 J/K/mol
2.791 K, Low-temperature adiabatic | 0.003994 J/K/mol
2.932 K, Low-temperature adiabatic | 0.004612 J/K/mol
3 K, adiabatic | 0.004998 J/K/mol
3.073 K, Low-temperature adiabatic | 0.005384 J/K/mol
3.228 K, Low-temperature adiabatic | 0.006206 J/K/mol
3.381 K, Low-temperature adiabatic | 0.007213 J/K/mol
3.5 K, adiabatic | 0.008013 J/K/mol
3.552 K, Low-temperature adiabatic | 0.008311 J/K/mol
3.719 K, Low-temperature adiabatic | 0.00968 J/K/mol
3.906 K, Low-temperature adiabatic | 0.01117 J/K/mol
4 K, adiabatic | 0.01212 J/K/mol
4.089 K, Low-temperature adiabatic | 0.01302 J/K/mol
4.294 K, Low-temperature adiabatic | 0.01503 J/K/mol
4.498 K, Low-temperature adiabatic | 0.01756 J/K/mol
4.5 K, adiabatic | 0.01755 J/K/mol
4.723 K, Low-temperature adiabatic | 0.02031 J/K/mol
4.947 K, Low-temperature adiabatic | 0.02384 J/K/mol
5 K, adiabatic | 0.02458 J/K/mol
5.194 K, Low-temperature adiabatic | 0.02762 J/K/mol
5.44 K, Low-temperature adiabatic | 0.03248 J/K/mol
5.5 K, adiabatic | 0.03354 J/K/mol
5.713 K, Low-temperature adiabatic | 0.03773 J/K/mol
5.985 K, Low-temperature adiabatic | 0.04456 J/K/mol
6 K, adiabatic | 0.04478 J/K/mol
6.284 K, Low-temperature adiabatic | 0.05186 J/K/mol
6.5 K, adiabatic | 0.05874 J/K/mol
6.583 K, Low-temperature adiabatic | 0.06156 J/K/mol
6.912 K, Low-temperature adiabatic | 0.07207 J/K/mol
7 K, adiabatic | 0.07583 J/K/mol
7.239 K, Low-temperature adiabatic | 0.08574 J/K/mol
7.5 K, adiabatic | 0.09651 J/K/mol
7.6 K, Low-temperature adiabatic | 0.1009 J/K/mol
7.96 K, Low-temperature adiabatic | 0.1206 J/K/mol
8 K, adiabatic | 0.1212 J/K/mol
8.354 K, Low-temperature adiabatic | 0.1416 J/K/mol
8.5 K, adiabatic | 0.1503 J/K/mol
8.75 K, Low-temperature adiabatic | 0.1684 J/K/mol
9 K, adiabatic | 0.1842 J/K/mol
9.185 K, Low-temperature adiabatic | 0.1972 J/K/mol
9.187 K, Low-temperature adiabatic | 0.1979 J/K/mol
9.5 K, adiabatic | 0.2231 J/K/mol
9.619 K, Low-temperature adiabatic | 0.2343 J/K/mol
9.645 K, Low-temperature adiabatic | 0.2352 J/K/mol
10 K, adiabatic | 0.2672 J/K/mol
10.11 K, Low-temperature adiabatic | 0.2752 J/K/mol and 0.2768 J/K/mol
10.59 K, Low-temperature adiabatic | 0.3268 J/K/mol
10.6 K, Low-temperature adiabatic | 0.3266 J/K/mol
11 K, adiabatic | 0.3709 J/K/mol
11.12 K, Low-temperature adiabatic | 0.3841 J/K/mol
11.66 K, Low-temperature adiabatic | 0.4516 J/K/mol
12 K, adiabatic | 0.4948 J/K/mol
12.23 K, Low-temperature adiabatic | 0.5267 J/K/mol
12.82 K, Low-temperature adiabatic | 0.6103 J/K/mol
13 K, adiabatic | 0.6372 J/K/mol
13.43 K, Low-temperature adiabatic | 0.7044 J/K/mol
14 K, adiabatic | 0.7967 J/K/mol
14.08 K, Low-temperature adiabatic | 0.8099 J/K/mol
14.75 K, Low-temperature adiabatic | 0.9261 J/K/mol
15 K, adiabatic | 0.9716 J/K/mol
15.46 K, Low-temperature adiabatic | 1.058 J/K/mol
16 K, adiabatic | 1.16 J/K/mol
16.19 K, Low-temperature adiabatic | 1.197 J/K/mol
16.99 K, Low-temperature adiabatic | 1.356 J/K/mol
17 K, adiabatic | 1.358 J/K/mol
17.79 K, Low-temperature adiabatic | 1.518 J/K/mol
18 K, adiabatic | 1.564 J/K/mol
18.66 K, Low-temperature adiabatic | 1.704 J/K/mol
19 K, adiabatic | 1.777 J/K/mol
19.55 K, Low-temperature adiabatic | 1.895 J/K/mol
19.6 K, Low-temperature adiabatic | 1.908 J/K/mol
20 K, adiabatic | 1.993 J/K/mol
20.58 K, Low-temperature adiabatic | 2.12 J/K/mol
21.46 K, Low-temperature adiabatic | 2.315 J/K/mol
22 K, adiabatic | 2.433 J/K/mol
22.52 K, Low-temperature adiabatic | 2.55 J/K/mol
23.59 K, Low-temperature adiabatic | 2.78 J/K/mol
24 K, adiabatic | 2.873 J/K/mol
24.75 K, Low-temperature adiabatic | 3.037 J/K/mol
25.92 K, Low-temperature adiabatic | 3.292 J/K/mol
26 K, adiabatic | 3.306 J/K/mol
27.21 K, Low-temperature adiabatic | 3.562 J/K/mol
28 K, adiabatic | 3.728 J/K/mol
28.49 K, Low-temperature adiabatic | 3.828 J/K/mol
29.94 K, Low-temperature adiabatic | 4.128 J/K/mol
30 K, adiabatic | 4.139 J/K/mol
31.38 K, Low-temperature adiabatic | 4.423 J/K/mol
32 K, adiabatic | 4.543 J/K/mol
32.99 K, Low-temperature adiabatic | 4.735 J/K/mol
34 K, adiabatic | 4.947 J/K/mol
34.59 K, Low-temperature adiabatic | 5.067 J/K/mol
36 K, adiabatic | 5.363 J/K/mol
36.02 K, Low-temperature adiabatic | 5.371 J/K/mol
37.45 K, Low-temperature adiabatic | 5.677 J/K/mol
38 K, adiabatic | 5.804 J/K/mol
